# Measurements from ChEMBL document CHEMBL6177951, “Synthesis and anti-MRSA activity of quaternized small molecule antimicrobial peptide mimics based on norharmane” (Eur J Med Chem, 2025).
# The source made the active and inactive calls. The calls are words filed in the database; no cut-off is given here.
# Legend:
# Staphylococcus aureus [1] = assay: In vivo antibacterial activity against methicillin-resistant Staphylococcus aureus infected in female Kunming mouse skin infection model assessed as log reduction in bacterial load at 5 mg/kg measured after 48 hrs (reference value: 14.34 log10CFU/g); format: functional
# Staphylococcus aureus [2] = assay: In vivo antibacterial activity against methicillin-resistant Staphylococcus aureus infected in female Kunming mouse skin infection model assessed as reduction in inflammatory cells at 5 to 20 mg/kg measured after 48 hrs by H and E staining based analysis; format: functional, organism-based; conditions: dose 5-20 mg/kg
# Staphylococcus aureus [3] = assay: Antibacterial activity against Staphylococcus aureus ATCC 33591 assessed as log reduction in bacterial growth at 1 times MIC measured at 6 hrs by time-kill kinetic assay; format: functional
# Staphylococcus aureus [4] = assay: In vivo antibacterial activity against methicillin-resistant Staphylococcus aureus infected in female Kunming mouse skin infection model assessed as recovery of dorsal surface at 5 to 20 mg/kg measured after 48 hrs; format: functional, organism-based; conditions: dose 5-20 mg/kg
# Staphylococcus aureus [5] = assay: Antibacterial activity against methicillin-resistant Staphylococcus aureus ATCC 33591 assessed as inhibition of bacterial growth incubated for 14 hrs by two-fold serial dilution method; format: functional
# Staphylococcus aureus [6] = assay: Antibacterial activity against methicillin-resistant Staphylococcus aureus ATCC 43300 assessed as inhibition of bacterial growth incubated for 14 hrs by two-fold serial dilution method; format: functional
# Staphylococcus aureus [7] = assay: Antibacterial activity against Staphylococcus aureus ATCC 25923 assessed as inhibition of bacterial growth incubated for 14 hrs by two-fold serial dilution method; format: functional
# Staphylococcus aureus [8] = assay: Antibacterial activity against Staphylococcus aureus CMCC 26003 assessed as inhibition of bacterial growth incubated for 14 hrs by two-fold serial dilution method; format: functional
# Staphylococcus aureus [9] = assay: Antibacterial activity against Staphylococcus aureus ATCC 29213 assessed as inhibition of bacterial growth incubated for 14 hrs by two-fold serial dilution method; format: functional
# Staphylococcus aureus [10] = assay: Antibacterial activity against methicillin-resistant Staphylococcus aureus clinical isolate M-20 incubated for 14 hrs by two-fold serial dilution method; format: functional
# Staphylococcus aureus [11] = assay: Antibacterial activity against methicillin-resistant Staphylococcus aureus clinical isolate M-13 incubated for 14 hrs by two-fold serial dilution method; format: functional
# Staphylococcus aureus [12] = assay: Antibacterial activity against methicillin-resistant Staphylococcus aureus clinical isolate M-22 incubated for 14 hrs by two-fold serial dilution method; format: functional
# Staphylococcus aureus [13] = assay: Antibacterial activity against methicillin-resistant Staphylococcus aureus clinical isolate M-14 incubated for 14 hrs by two-fold serial dilution method; format: functional
# Staphylococcus aureus [14] = assay: Antibacterial activity against methicillin-resistant Staphylococcus aureus clinical isolate M-15 incubated for 14 hrs by two-fold serial dilution method; format: functional
# Staphylococcus aureus [15] = assay: Antibacterial activity against methicillin-resistant Staphylococcus aureus clinical isolate M-19 incubated for 14 hrs by two-fold serial dilution method; format: functional
# Staphylococcus aureus [16] = assay: Antibacterial activity against methicillin-resistant Staphylococcus aureus clinical isolate M-16 incubated for 14 hrs by two-fold serial dilution method; format: functional
# Staphylococcus aureus [17] = assay: Antibacterial activity against methicillin-resistant Staphylococcus aureus clinical isolate M-21 incubated for 14 hrs by two-fold serial dilution method; format: functional
# Staphylococcus aureus [18] = assay: Antibacterial activity against methicillin-resistant Staphylococcus aureus clinical isolate M-18 incubated for 14 hrs by two-fold serial dilution method; format: functional
# Staphylococcus aureus [19] = assay: Antibacterial activity against methicillin-resistant Staphylococcus aureus clinical isolate M-17 incubated for 14 hrs by two-fold serial dilution method; format: functional
# Staphylococcus aureus [20] = assay: Antibacterial activity against methicillin-resistant Staphylococcus aureus clinical isolate M-23 incubated for 14 hrs by two-fold serial dilution method; format: functional
# Staphylococcus aureus [21] = assay: Antibacterial activity against Staphylococcus aureus ATCC 33591 assessed as resistance development by measuring fold increase in MIC at 0.5 times MIC incubated for 8 hrs and measured after 15 passages; format: functional
SMILES,MIC (Staphylococcus aureus [5]),MIC (Staphylococcus aureus [6]),MIC (Staphylococcus aureus [7]),MIC (Staphylococcus aureus [8]),MIC (Staphylococcus aureus [9]),also measured
CN[C@H](CC(C)C)C(=O)N[C@H]1C(=O)N[C@@H](CC(N)=O)C(=O)N[C@H]2C(=O)N[C@H]3C(=O)N[C@H](C(=O)N[C@H](C(=O)O)c4cc(O)cc(O)c4-c4cc3ccc4O)[C@H](O)c3ccc(c(Cl)c3)Oc3cc2cc(c3O[C@@H]2O[C@H](CO)[C@@H](O)[C@H](O)[C@H]2O[C@H]2C[C@](C)(N)[C@H](O)[C@H](C)O2)Oc2ccc(cc2Cl)[C@H]1O [VANCOMYCIN],,,,,,Activity (Staphylococcus aureus [1]): 4.99 log10CFU/g; Activity (Staphylococcus aureus [2]): Active; Activity (Staphylococcus aureus [3]): 2.74 log10CFU/ml; Activity (Staphylococcus aureus [4]): Active
CCN(CC)CCn1c2ccccc2c2ccncc21,128 µg/mL,128 µg/mL,64 µg/mL,128 µg/mL,128 µg/mL,
c1ccc2c(c1)c1ccncc1n2CCCCCCCCCCCn1c2ccccc2c2ccncc21,> 128 µg/mL,> 128 µg/mL,> 128 µg/mL,> 128 µg/mL,> 128 µg/mL,
CCCC[n+]1ccc2c3ccccc3n(CCN(CC)CC)c2c1.[Br-],64 µg/mL,64 µg/mL,16 µg/mL,16 µg/mL,128 µg/mL,
C[n+]1ccc2c3ccccc3n(CCCCCCCCCCCCn3c4ccccc4c4cc[n+](C)cc43)c2c1.[I-].[I-],0.5 µg/mL,1 µg/mL,1 µg/mL,0.5 µg/mL,0.5 µg/mL,MIC (Staphylococcus aureus [10]): 1 µg/mL; MIC (Staphylococcus aureus [11]): 1 µg/mL; MIC (Staphylococcus aureus [12]): 1 µg/mL; MIC (Staphylococcus aureus [13]): 1 µg/mL; MIC (Staphylococcus aureus [14]): 1 µg/mL; MIC (Staphylococcus aureus [15]): 1 µg/mL; MIC (Staphylococcus aureus [16]): 1 µg/mL; MIC (Staphylococcus aureus [17]): 1 µg/mL; MIC (Staphylococcus aureus [18]): 1 µg/mL; MIC (Staphylococcus aureus [19]): 1 µg/mL; MIC (Staphylococcus aureus [20]): 1 µg/mL
CCC[n+]1ccc2c3ccccc3n(CC[N+](C)(C)CCC)c2c1.[Br-].[Br-],> 128 µg/mL,> 128 µg/mL,64 µg/mL,> 128 µg/mL,> 128 µg/mL,
CC[n+]1ccc2c3ccccc3n(CC[N+](CC)(CC)CC)c2c1.[Br-].[Br-],> 128 µg/mL,> 128 µg/mL,128 µg/mL,> 128 µg/mL,> 128 µg/mL,
c1ccc2c(c1)c1ccncc1n2CCCCCCCCCn1c2ccccc2c2ccncc21,> 128 µg/mL,> 128 µg/mL,> 128 µg/mL,> 128 µg/mL,> 128 µg/mL,
c1ccc2c(c1)[nH]c1cnccc12 [NORHARMANE],64 µg/mL,64 µg/mL,32 µg/mL,64 µg/mL,64 µg/mL,
CCCCC[n+]1ccc2c3ccccc3n(CC[N+](C)(C)CCCCC)c2c1.[Br-].[Br-],> 128 µg/mL,> 128 µg/mL,128 µg/mL,> 128 µg/mL,> 128 µg/mL,
CCCC[n+]1ccc2c3ccccc3n(CC[N+](C)(C)CCCC)c2c1.[Br-].[Br-],128 µg/mL,> 128 µg/mL,128 µg/mL,> 128 µg/mL,> 128 µg/mL,
CCC[n+]1ccc2c3ccccc3n(CCN(CC)CC)c2c1.[Br-],128 µg/mL,128 µg/mL,32 µg/mL,32 µg/mL,> 128 µg/mL,
C[n+]1ccc2c3ccccc3n(CCCCCCCCCn3c4ccccc4c4cc[n+](C)cc43)c2c1.[I-].[I-],0.5 µg/mL,4 µg/mL,4 µg/mL,0.5 µg/mL,2 µg/mL,MIC (Staphylococcus aureus [10]): 2 µg/mL; MIC (Staphylococcus aureus [11]): 1 µg/mL; MIC (Staphylococcus aureus [12]): 2 µg/mL; MIC (Staphylococcus aureus [13]): 1 µg/mL; MIC (Staphylococcus aureus [14]): 4 µg/mL; MIC (Staphylococcus aureus [15]): 4 µg/mL; MIC (Staphylococcus aureus [16]): 2 µg/mL; MIC (Staphylococcus aureus [17]): 4 µg/mL; MIC (Staphylococcus aureus [18]): 4 µg/mL; MIC (Staphylococcus aureus [19]): 4 µg/mL; MIC (Staphylococcus aureus [20]): 4 µg/mL
C[n+]1ccc2c3ccccc3n(CC[N+](C)(C)C)c2c1.[I-].[I-],> 128 µg/mL,> 128 µg/mL,128 µg/mL,> 128 µg/mL,> 128 µg/mL,
CCCCC[n+]1ccc2c3ccccc3n(CCN(CC)CC)c2c1.[Br-],32 µg/mL,32 µg/mL,8 µg/mL,16 µg/mL,128 µg/mL,
c1ccc2c3c([nH]c2c1)CNCC3 [TRYPTOLINE],128 µg/mL,128 µg/mL,128 µg/mL,128 µg/mL,> 128 µg/mL,
CCn1cc(C(=O)O)c(=O)c2cc(F)c(N3CCNCC3)cc21 [NORFLOXACIN],,,,,,fold change (FC) (Staphylococcus aureus [21]): 16
C[n+]1ccc2c3ccccc3n(CCCCCCCCCCn3c4ccccc4c4cc[n+](C)cc43)c2c1.[I-].[I-],0.5 µg/mL,2 µg/mL,2 µg/mL,0.5 µg/mL,1 µg/mL,MIC (Staphylococcus aureus [10]): 1 µg/mL; MIC (Staphylococcus aureus [11]): 1 µg/mL; MIC (Staphylococcus aureus [12]): 1 µg/mL; MIC (Staphylococcus aureus [13]): 1 µg/mL; MIC (Staphylococcus aureus [14]): 2 µg/mL; MIC (Staphylococcus aureus [15]): 2 µg/mL; MIC (Staphylococcus aureus [16]): 1 µg/mL; MIC (Staphylococcus aureus [17]): 2 µg/mL; MIC (Staphylococcus aureus [18]): 2 µg/mL; MIC (Staphylococcus aureus [19]): 2 µg/mL; MIC (Staphylococcus aureus [20]): 2 µg/mL
CC[N+](C)(CC)CCn1c2ccccc2c2cc[n+](C)cc21.[I-].[I-],> 128 µg/mL,> 128 µg/mL,128 µg/mL,> 128 µg/mL,> 128 µg/mL,
CN(C)CCn1c2ccccc2c2ccncc21,128 µg/mL,> 128 µg/mL,64 µg/mL,> 128 µg/mL,64 µg/mL,
c1ccc2c(c1)c1ccncc1n2CCCCCCCCCCn1c2ccccc2c2ccncc21,> 128 µg/mL,> 128 µg/mL,> 128 µg/mL,> 128 µg/mL,> 128 µg/mL,
CC[n+]1ccc2c3ccccc3n(CC[N+](C)(C)CC)c2c1.[Br-].[Br-],> 128 µg/mL,> 128 µg/mL,128 µg/mL,> 128 µg/mL,> 128 µg/mL,
c1ccc2c(c1)c1ccncc1n2CCCCCCCCCCCCn1c2ccccc2c2ccncc21,> 128 µg/mL,> 128 µg/mL,> 128 µg/mL,> 128 µg/mL,> 128 µg/mL,
CCN(CC)CCn1c2ccccc2c2cc[n+](CC)cc21.[Br-],128 µg/mL,> 128 µg/mL,32 µg/mL,32 µg/mL,> 128 µg/mL,
